Reference: article PMC4855186, “Characterization of primary human hepatocyte spheroids as a model system for drug-induced liver injury, liver function and disease” (Scientific Reports, 2016)

Legend:
PHH spheroids [1] = assay: Chronic toxicity assay in PHH spheroids, viability by cellular ATP content; assay type: cell-based, human; conditions: for Fold changes in EC50 vs. 48 h (8 d): 8 d vs 48 h exposure; for Fold changes in EC50 vs. 48 h (28 d): 28 d vs 48 h exposure; for EC50: Homo sapiens
Description: Cryopreserved PHH (obtained from […], France or Bioreclamation IVT, USA) or fresh hepatocytes (obtained from patients subject to liver resections at Huddinge University Hospital, Stockholm, Sweden) were used for formation of spheroid cultures. Hepatocytes obtained from patient livers were isolated as previously described. Use of the liver specimens for this purpose was approved by the Ethics Committee at Karolinska Institutet ([…] Stockholm) and studies were carried out in accordance with the approved guidelines. Written informed consent was obtained from all donors of liver material. Cells were seeded into ultra-low attachment 96-well plates (Corning) at 1,500 viable cells per well and subsequently centrifuged at 100 × g for 2 min. Cells were seeded in 100 μl Williams E medium supplemented with 2 mM L-glutamine, 100 units/ml penicillin, 100 μg/ml streptomycin, 10 μg/ml insulin, 5.5 μg/ml transferrin, 6.7 ng/ml sodium selenite, 100 nM dexamethasone, and 10% FBS. Spontaneous self-aggregation of the hepatocytes initiated spheroid formation. From day 4 or 5 after seeding, when the spheroids were sufficiently compact, 50% of the medium was exchanged daily for serum-free medium. Spheroids were maintained in serum-free medium until day 35, with a medium change every 48-72 h. Cell viability was assessed by determining the ATP content of single PHH spheroids with the CellTiter-Glo Luminescent Cell Viability Assay (Promega, Sweden). At the same time-points, cell culture medium was collected and albumin concentrations were determined by ELISA (Bethyl laboratories, USA). Absolute ATP and albumin values were normalized to spheroid volumes as determined from bright field imaging to compensate for compaction. […] Treatment was started on day 8 with repeated dosing of PHH spheroids every second day in serum-free medium as indicated. Cell viability was assessed by determining the ATP content as indicated above. EC50 values were determined using GraphPad Prism (GraphPad Software, USA).

[2] = human plasma Cmax; ref 21 (amiodarone), 22 (bosentan), 23 (diclofenac), 24 (fialuridine), 25 (tolcapone); read-out: In vivo Cmax; cited from earlier work
patients = test system: patients; set-up: method as in PMID 7565947; conditions: clinical trials, cited from earlier work
chimeric TK-NOG mice = test system: chimeric TK-NOG mice; set-up: method as in PMID 24736310; conditions: mice carrying human hepatocytes; cited from earlier work
PHH spheroids [3] = assay: Toxicity in non-infected and adenovirus (AdGL)-infected PHH spheroids; assay type: cell-based, human; conditions: for EC50: Homo sapiens
Description: Cell viability was assessed by determining the ATP content of single PHH spheroids with the CellTiter-Glo Luminescent Cell Viability Assay (Promega, Sweden). At the same time-points, cell culture medium was collected and albumin concentrations were determined by ELISA (Bethyl laboratories, USA). Absolute ATP and albumin values were normalized to spheroid volumes as determined from bright field imaging to compensate for compaction.
A recombinant adenovirus (AdGL) expressing green fluorescent protein (GFP; described in ref. [44]) was added during PHH spheroid seeding at a multiplicity of infection (MOI) of 0.1. PHH were seeded into GravityPLUS hanging-drop 96-well plates (InSphero, Zurich, Switzerland) at 1,500 viable cells per well. Spheroids were transferred to Gravity TRAP 96-well plates (InSphero) on day 7. Culture conditions were identical to the conditions for spheroids formed in ultra-low attachment plates.

PHH spheroids [4] = assay: Bile acid accumulation (tauro-nor-THCA-25-DBD) in PHH spheroids; assay type: cell-based, human; conditions: 5 μM every second day for 1 week; n = 3, p = 0.03
Description: (§1) PHH spheroids were dosed with 5 μM chlorpromazine every second day for 1 week. For the final exposure, 20 μM tauro-nor-THCA-25-DBD (Genomembrane Company Ltd., Yokohoma, Japan) was added. Bile acid accumulation was quantified and normalized to spheroid size using CellProfiler software.

[5] = test system: bile salt export pump (BSEP) mRNA; assay: BSEP mRNA expression in PHH spheroids (RT-qPCR); assay type: cell-based, human; conditions: 5 μM
Description: as §1
Total RNA was isolated using Qiazol lysis reagent (Qiagen). RNA was reverse-transcribed into cDNA using SuperScript III reverse transcriptase and RT-qPCR analysis was performed using a TaqMan Universal mix on a 7500 Fast Real-Time PCR system.

PHH spheroids [6] = assay: Neutral lipid staining (steatosis) in PHH spheroids; assay type: cell-based, human; conditions: 10 μM co-exposure with CsA 30 μM, 48 h; n = 3, p = 0.009
Description: PHH spheroids were treated with 30 μM cyclosporine A (CsA) and/or 10 μM α-tocopherol (α-TOH) as indicated. After 48 h, spheroids were fixed and incubated with HCS LipidTOX Green neutral lipid stain (1:500). CellProfiler software was used to quantify neutral lipid staining.

[7] = test system: Kupffer cells in co-culture spheroids; assay: LPS-induced IL-6 secretion in PHH/NPC co-culture spheroids (ELISA); assay type: cell-based, human; conditions: 10 μg/ml, 48 h; co-culture spheroids compared to PHH spheroids
Description: When used, co-cultures of cryopreserved PHH and non-parenchymal cells (NPCs; Bioreclamation IVT) originating from different donors were thawed and seeded at a ratio of 2:1 (PHH:NPC) and 2,000 viable cells per well into ultra-low attachment plates. Functionality of Kupffer cells was assessed by measuring lipopolysaccharide (LPS)-induced interleukin 6 (IL-6) secretion. LPS was added at a concentration of 10 μg/ml and supernatants were collected after 48 h. IL-6 levels were determined via ELISA (Thermo Scientific).

[8] = 672 h, PHH spheroids, viability by ATP content, dosing every second day, 28 days, read-out: EC50 (μM) 28d
[9] = PHH spheroids, viability by ATP content, 48 h exposure, read-out: EC50 (μM) 48h
[10] = PHH spheroids, viability by ATP content, dosing every second day, 7d (legend: 8 days), read-out: EC50 (μM) 7d

For `COc1ccccc1Oc1c(NS(=O)(=O)c2ccc(C(C)(C)C)cc2)nc(-c2ncccn2)nc1OCCO` [Bosentan, bosentan], the “Fold changes in EC50 vs. 48 h (8 d)” value (PHH spheroids [1]) was 3.6 fold, the “Fold changes in EC50 vs. 48 h (28 d)” value (PHH spheroids [1]) was 6.0 fold and the EC50 (PHH spheroids [1]; [8]) was 41.8 µM. The EC50 (PHH spheroids [1]; [9]) was over 250 µM and the EC50 (PHH spheroids [1]; [10]) was 69.5 µM.
In the case of `O=C(O)Cc1ccccc1Nc1c(Cl)cccc1Cl` [Diclofenac, diclofenac], the EC50 (PHH spheroids [1]; [8]) is reported as 45.9 µM, the EC50 (PHH spheroids [1]; [9]) is reported as 191 µM and the EC50 (PHH spheroids [1]; [10]) is reported as 56.8 µM.
For `O=c1[nH]c(=O)n([C@@H]2O[C@H](CO)[C@@H](O)[C@@H]2F)cc1I` [Fialuridine, fialuridine], the Cmax [2] is listed as 1000 nM, the “Fold changes in EC50 vs. 48 h (8 d)” value (PHH spheroids [1]) is listed as 142.9 fold and the “Fold changes in EC50 vs. 48 h (28 d)” value (PHH spheroids [1]) is listed as 1000 fold. For the same molecule, the EC50 (PHH spheroids [1]; 672 h, PHH spheroids, repeated dosing, 4 weeks, read-out: EC50 after 4 weeks) was 0.1 µM, the EC50 (PHH spheroids [1]; [9]) was over 100 µM and the EC50 (PHH spheroids [1]; [10]) was 0.7 µM. The “toxicity observed after 48 h” value (PHH spheroids [1]; PHH spheroids, 48 h exposure) was “no toxicity”, the patients who died (patients; of those with severe hepatotoxicity) was “five” and the “patients who developed severe hepatotoxicity” value (patients; several weeks after beginning treatment) was 7/15. For the same molecule, the hepatotoxicity (chimeric TK-NOG mice) was “induced hepatotoxicity”.
For `Cc1ccc(C(=O)c2cc(O)c(O)c([N+](=O)[O-])c2)cc1` [Tolcapone, tolcapone], the “Fold changes in EC50 vs. 48 h (8 d)” value (PHH spheroids [1]) was 2 fold, the “Fold changes in EC50 vs. 48 h (28 d)” value (PHH spheroids [1]) was 3.4 fold and the EC50 (PHH spheroids [1]; [8]) was 5.6 µM. For the same molecule, the EC50 (PHH spheroids [1]; [9]) was 18.8 µM, the EC50 (PHH spheroids [1]; [10]) was 9.4 µM and the “EC50 values related to reported in vivo Cmax” value (PHH spheroids [1]; already after acute dosing) was “lower than the reported in vivo Cmax values”.
For `N[C@@H]1[C@H]2CN(c3nc4c(cc3F)c(=O)c(C(=O)O)cn4-c3ccc(F)cc3F)C[C@@H]12` [Trovafloxacin, trovafloxacin], the EC50 (PHH spheroids [3]; non-infected PHH spheroids) was 96.1 µM, the EC50 (PHH spheroids [3]; virus-infected PHH spheroids (AdGL, MOI 0.1)) was 32.9 µM and the “enhancement of toxicity by viral infection” value (PHH spheroids [3]; infected vs non-infected spheroids, p < 0.001) was 2.9 fold.
With `CN(C)CCCN1c2ccccc2Sc2ccc(Cl)cc21` [chlorpromazine] the “accumulation of fluorescently-labelled bile acid derivative tauro-nor-THCA-25-DBD” value (PHH spheroids [4]) was “significant accumulation” and the “BSEP mRNA expression” value [5] was “down-regulation”.
With `C[C@H]1COc2c(N3CCN(C)CC3)c(F)cc3c(=O)c(C(=O)O)cn1c23` [levofloxacin] the toxicity observed (PHH spheroids [3]; infected spheroids) was “no toxicity” and the toxicity observed (PHH spheroids [3]; non-infected spheroids) was “no toxicity”.
In the case of `Cc1c(C)c2c(c(C)c1O)CC[C@@](C)(CCC[C@H](C)CCC[C@H](C)CCCC(C)C)O2` [α-tocopherol], the “protection against cyclosporine A-induced neutral lipid accumulation” value (PHH spheroids [6]) is reported as “fully protected”.
With lipopolysaccharide [LPS] the IL-6 secretion [7] was “substantial increase”.
